Patent US10487313B2, “Efficient induction of definitive endoderm from pluripotent stem cells” (Novo Nordisk A/S, priority 2011, dated 2019)

System: hES SA121 cells
Experiment: OCT4 and SOX17 protein ICC quantification during DE induction, DEF culture system
Format: cell-based, human
Details: CHIR 3 μM D1 then Activin A D2-3, or D'Amour protocol
Experimental: Human embryonic stem (hES) cells SA121 and […]) were grown on human fibronectin (Sigma) in DEF culture media (Cellartis) with 30 ng/ml bFGF (Invitrogen) and 10 ng/ml Noggin (Peprotech) in 6-96 well plates. Cells were single cell passaged with Rock inhibitor Y-27632 (Calbiochem) and seeded at a density of 40000 cells/cm2 for experiments. Experiments were initiated 4 d after passage. Confluent cultures were washed once in RPMI1640 (Invitrogen) before 24 hour pre-treatment with 0,5-7μM CHIR99021 (Stemgent) in RPMI. Control cells were left untreated in RPMI and D'Amour cells were either left in RPMI or treated with AA (Peprotech)+Wnt3a (R&D Systems) without pre-treatment depending on experimental setup. After 24 hours, pretreated and control cells were washed once with RPMI before adding 100 ng/ml AA in RPMI. D'Amour cells were also treated with 100 ng/ml AA but with 0,2% FBS instead of B27. 24 h later, 2% B27 (Invitrogen) was added to the AA media for 2-3 d. Control cells were treated with B27 to prevent cell death and D'Amour cells with 2% FBS according to published protocol. Media was changed every day. • Day 1: Cells were washed carefully in prewarmed (37° C.) RPMI before starting the differentiation. Day1 medium was premixed (CHIR 3 μM in prewarmed RPMI+PEST) and gently added to cell culture. Volumes were adjusted according to plate formats. • Day 2: Cells were washed carefully in prewarmed (37° C.) RPMI before media change. Day2 medium was premixed (100 ng/ml Activin A in prewarmed RPMI+0.1% PEST) and gently added to cell culture. • Day 3: Day3&4 mediums were premixed (100 ng/ml Activin A and 2% B27 in prewarmed RPMI+0.1% PEST) and gently added to cell culture. • Day 4: DE was harvested or reseeded for further differentiation. Cells were checked under the microscope every day. Cells were washed in PBS+/+ and fixed in 4% formaldehyde for 30 min (10% formaline, VWR). The cells were then washed again three times in PBS and left in PBS (4° C.) until staining. Fixed cells were washed with PBS once, then permeabilized with 0.5% Triton X-100 in PBS for 6 min, washed in PBS and blocked with TNB buffer (0.1 M Tris-HCL pH 7.5, 0.15 M NaCl, 0.5% Blocking Reagent (Perkin Elmer)) for 30 min. Primary antibodies (goat-anti-SOX17 (AF1924, RnD Systems); goat-anti-Brachyury (AF2085, RnD Systems); mouse-anti-OCT4 (sc5279, SantaCruz Biotechnology); goat-anti-PDX1 (AB47383, Abcam)) were added in 0.1% TritonX-100+PBS for 1 h in RT or 4° C. O/N. After a thorough washing step in PBS, secondary antibodies were added together with DAPI in 0.1% Triton X-100+PBS for 45 min at RT, washed thoroughly in PBS and left in PBS until photodocumentation.

## Cc1c[nH]c(-c2cnc(NCCNc3ccc(C#N)cn3)nc2-c2ccc(Cl)cc2Cl)n1 [CHIR, CHIR99021]
SA121, D1
  OCT4 ICC % positive cells: 97.7%
  SOX17 ICC % positive cells: 0%
SA121, D2
  OCT4 ICC % positive cells: 2.4%
  SOX17 ICC % positive cells: 72.1%
SA121, D3
  OCT4 ICC % positive cells: 0.2%
  SOX17 ICC % positive cells: 93.1%
